Data on three molecules can be found in patent publication US20250017931A1, “METHODS OF PERSONALIZING CANCER TREATMENT” (PROCESSA PHARMACEUTICALS, INC.,, priority 2023, published 2025).

Read-outs that look alike come from different tables or passages of the source.

Data set [1] addresses T1, dihydropyrimidine dehydrogenase (DPD) (Homo sapiens, UniProt Q12882).
T1 sequence (Q12882 4-1025): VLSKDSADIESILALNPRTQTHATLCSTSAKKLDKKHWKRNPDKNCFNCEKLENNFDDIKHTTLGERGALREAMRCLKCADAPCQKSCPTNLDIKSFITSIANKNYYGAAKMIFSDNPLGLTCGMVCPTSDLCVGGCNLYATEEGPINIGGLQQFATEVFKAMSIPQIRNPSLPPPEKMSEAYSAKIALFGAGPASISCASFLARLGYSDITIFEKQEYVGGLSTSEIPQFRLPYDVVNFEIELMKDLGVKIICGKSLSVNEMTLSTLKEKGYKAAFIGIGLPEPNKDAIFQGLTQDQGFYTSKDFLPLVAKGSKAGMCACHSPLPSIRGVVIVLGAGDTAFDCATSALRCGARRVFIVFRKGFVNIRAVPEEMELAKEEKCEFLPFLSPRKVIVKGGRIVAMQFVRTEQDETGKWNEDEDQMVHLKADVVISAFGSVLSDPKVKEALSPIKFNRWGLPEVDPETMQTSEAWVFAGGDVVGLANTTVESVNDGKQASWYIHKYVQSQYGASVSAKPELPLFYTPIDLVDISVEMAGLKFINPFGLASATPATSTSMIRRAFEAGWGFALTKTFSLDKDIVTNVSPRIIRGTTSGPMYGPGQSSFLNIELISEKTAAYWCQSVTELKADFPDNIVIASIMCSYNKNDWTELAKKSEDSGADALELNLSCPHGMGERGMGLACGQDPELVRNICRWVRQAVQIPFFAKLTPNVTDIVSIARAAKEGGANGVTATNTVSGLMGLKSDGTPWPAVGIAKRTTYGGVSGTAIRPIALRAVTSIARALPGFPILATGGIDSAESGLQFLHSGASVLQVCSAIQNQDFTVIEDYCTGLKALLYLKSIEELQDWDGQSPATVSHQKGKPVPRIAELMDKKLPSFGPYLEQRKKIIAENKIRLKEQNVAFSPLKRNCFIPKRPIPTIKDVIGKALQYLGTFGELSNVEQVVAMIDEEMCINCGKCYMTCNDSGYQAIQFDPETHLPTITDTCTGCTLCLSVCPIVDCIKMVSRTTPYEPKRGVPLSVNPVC
Particulars: cited from earlier work.

For data set [2] the following is noted: human, in vivo. How it is done:
40 mg of PCS6422 was administered to the subjects on both of day 1 and day 5 (Cohort 2B) or on only day 1 (Cohort 2D). Subsequently, 75 mg of capecitabine was administered to the subjects twice daily (morning and night) on days 2-8 followed by 6 days of a drug-free period (days 9-14).
Blood samples for PK analysis of PCS6422 and its major metabolite, 5-acetyluracil in Cycle 1 on Day 1 was drawn at 0 (pre-dose), 1, 2, 3, 5, 7, 9 and 24 hours. The 24-hour post dose sample was collected prior to capecitabine administration on Day 2.
On the first day of capecitabine treatment (Cycle 1, Day 2), blood samples for PK analysis of capecitabine, 5-fluorouracil (5-FU), and the quantifiable main metabolites, α-fluoro-β-alanine (FBAL), 5′-deoxy-5-fluorocytidine (5′-DFCR), and doxifluridine (5′-DFUR) were obtained at the following time points relative to administration of the first dose of capecitabine […]: 0 (pre-dose), 0.5, 1, 2, 3, 5, 7, and 9 hours. In Cycle 1 on Day 8, blood samples were obtained at the following time points relative to administration of the morning dose of capecitabine at time 0 (pre-dose/trough), 0.5, 1, 2, 3, 5, 7, and 9 hours.
Additional PK blood samples for capecitabine and its main metabolites were obtained prior to administration of the morning dose of capecitabine on Days 3, 4, 5, 6, 7, 9. Validated analytical methods were used to determine the concentrations of PCS6422, 5-aceyluracil, capecitabine, 5-FU, FBAL, 5′-DFCR, and 5′-DFUR in plasma.

For data set [3] the following is noted: human, in vivo. How it is done:
40 mg of PCS6422 is administered to the subjects on day 1. Subsequently, 75 mg of capecitabine is administered to the subjects daily (Cohort 1) or twice daily (Cohort 2A, morning and night) on days 2-8 followed by 6 days of a drug-free period (days 9-14).
Blood samples for pharmacokinetic (PK) analysis of PCS6422 and its major metabolite, 5-acetyluracil, are drawn in cycle 1 on day 1 at 0 (pre-dose), 1, 2, 3, 5, 7, 9, and 24 hours post PCS6422 administration. On the first day of capecitabine treatment (Cycle 1, day 2), blood samples for PK analysis of capecitabine, 5-fluorouracil (5-FU), and the quantifiable main metabolites, α-fluoro-β-alanine (FBAL), 5′-deoxy-5-fluorocytidine (5′-DFCR), and doxifluridine (5′-DFUR) are obtained at the following time points relative to administration of the first dose of capecitabine (dose 1): 0 (pre-dose/trough), 0.5, 1, 2, 3, 5, 7, and at 9 hours. In cycle 1 on Day 8, blood samples are obtained at the following time points relative to administration of the dose of capecitabine (dose 7 of cycle 1): 0 (pre-dose/trough), 0.5, 1, 2, 3, 5, 7, 9, 24, 30, and 48 hours post-capecitabine dose. A capecitabine blood sample is also drawn on cycle 2, day 1, prior to the dose of PCS6422.
Blood samples are also drawn for the analysis of DPD activity using uracil and dihydrouracil concentrations at screening and at the following times during Cycle 1: Day 1, Day 2, Day 8, Day 9, and Day 10. A blood sample is also drawn on Cycle 2, day 1 prior to the dose of PCS6422. All blood samples for analysis of uracil and dihydrouracil concentrations are taken prior a subject's meal, if possible. Actual sample time is recorded. Validated analytical methods are used to determine the concentrations of PCS6422, 5-acetyluracil, capecitabine, 5-FU, FBAL, 5′-DFCR, and 5′-DFUR, uracil, and/or dihydrouracil in plasma.
The source holds these as a separate data set.

The conditions of data set [4]: laboratory animals; cited from earlier work.
Data set [5] concerns the target T1, dihydropyrimidine dehydrogenase (DPD). The conditions noted are these: background statement; cited from earlier work.

Turning to `O=c1[nH]cc(F)c(=O)[nH]1` [5-FU, 5-fluorouracil], the “fraction of administered 5-FU catabolized by DPD” value in data set [1] (background statement) is “over 80%”. In addition, the 5-FU elimination half-life entry in data set [1] (with DPD inhibited by PCS6422) is given as “several hours”. In data set [1] (without PCS6422), the 5-FU elimination half-life was 10 to 20 min. In addition, in data set [2], the “highest 5-FU plasma concentration (Cp high) during 0-9 hours following capecitabine dosing” value is 197 to 746 ng/mL and the “lowest 5-FU plasma concentration (Cp low) during 0-9 hours following capecitabine dosing” value is 6.4 to 283 ng/mL. In data set [2] (168 h), the “5FU D 9” value was below 2 ng/mL. In addition, in data set [3], the “5FU D 8 0-9 hrs Cp Low” value was below 2 ng/mL, the “5FU D 8 Cmin” value was below 2 ng/mL, the “5FU D 9” value was below 2 ng/mL and the “highest 5-FU plasma concentration (Cp high) during 0-9 hours following capecitabine dosing” value was 309 to 466 ng/mL. In data set [3], the “lowest 5-FU plasma concentration (Cp low) during 0-9 hours following capecitabine dosing” value is 8.1 to 164 ng/mL.

In the case of `NCC(F)C(=O)O` (stereo not drawn) [FBAL, α-fluoro-β-alanine], in data set [2], the “FBAL Cp high on Day 2 (0-9 hours post capecitabine dose)” value is 15 to 33.1 ng/mL. Besides, in data set [3], the “FBAL Cp high on Day 2 (0-9 hours post capecitabine dose)” value fell in the range of 15 to 26 ng/mL and the “FBAL Cp low on Day 2 (0-9 hours post capecitabine dose)” value fell in the range of 15 to 22.6 ng/mL. Besides, the “effect on anti-tumor activity of 5-FU” value in data set [4] is on record as “decrease the anti-tumor activity of 5-FU”.

As for `C#Cc1c[nH]c(=O)[nH]c1=O` [PCS6422, 5-ethynyl-1H-pyrimidine-2,4-dione], in data set [5], the “inactivation of DPD” value is “potent and irreversible inactivator”.
